Experimental findings from patent US11180496B2 (Daewoong Pharmaceutical Co., Ltd., priority 2017, dated 2021) are described below.

The target of one experiment is T1, BTK (Homo sapiens, UniProt Q06187).
T1 construct: purchased Promega
The experiment in a line: BTK inhibitory activity, ADP-Glo + BTK Kinase enzyme system kit (Promega). The class given is biochemical. To be noted: BTK enzyme 1 ng/uL, ATP 10 uM, 15 min preincubation, luminescence, duplicate. The method, then:
(§1) The inhibitory activity against BTK and ITK of the compounds prepared in Examples above were measured as follows.
(§2) The inhibitory activity against BTK was evaluated using ‘ADP-Glo™+BTK Kinase enzyme system’ kit from Promega. […] 5 uL of substrate and 5 uL of ATP prepared at a final concentration of 10 uM were added to all wells of the plate after completion of the reaction, and allowed to react at 30° C. for 1 hour. All wells of the plate after completion of the reaction were treated with 25 uL of ADP-Glo™ reagent and reacted at 30° C. for 40 minutes. Then, 50 uL of the kinase detection buffer was applied to all wells of the plate, and then the light was blocked and reacted at 30° C. for 30 minutes. For the plate for which all reactions were completed, the luminescence was measured and the results were calculated. The evaluation was performed in duplicate. The respective values of negative and positive controls, depending on whether the enzymes were added without treatment of the compound, were determined, and IC50 was calculated based on the values.

A further experiment addresses T2, ITK (Homo sapiens, UniProt Q08881).
T2 construct: purchased Promega
T2 sequence (Q08881 1-620): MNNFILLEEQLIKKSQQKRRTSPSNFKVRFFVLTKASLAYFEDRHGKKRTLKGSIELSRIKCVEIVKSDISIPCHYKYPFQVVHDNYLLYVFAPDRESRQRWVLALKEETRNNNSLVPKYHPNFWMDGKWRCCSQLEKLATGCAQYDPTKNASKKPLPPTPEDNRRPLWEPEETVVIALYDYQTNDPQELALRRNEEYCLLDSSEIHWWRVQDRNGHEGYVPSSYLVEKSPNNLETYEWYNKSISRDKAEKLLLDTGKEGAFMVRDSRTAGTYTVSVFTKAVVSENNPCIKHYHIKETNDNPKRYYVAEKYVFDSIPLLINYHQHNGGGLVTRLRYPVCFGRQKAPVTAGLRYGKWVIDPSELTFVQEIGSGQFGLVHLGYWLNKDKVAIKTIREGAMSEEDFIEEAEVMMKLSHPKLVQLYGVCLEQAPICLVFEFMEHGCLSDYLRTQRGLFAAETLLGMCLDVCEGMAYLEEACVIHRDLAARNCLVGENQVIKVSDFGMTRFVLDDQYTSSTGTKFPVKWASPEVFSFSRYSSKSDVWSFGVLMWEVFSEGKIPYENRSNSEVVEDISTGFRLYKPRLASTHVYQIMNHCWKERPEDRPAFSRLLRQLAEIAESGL
Description: ITK inhibitory activity, ADP-Glo + ITK Kinase enzyme system kit (Promega). The format is biochemical. To be noted: ITK enzyme 0.4 ng/uL, ATP 25 uM, 15 min preincubation, luminescence, duplicate. The method, then:
as §1
as §2, with “ITK” for “BTK”, “‘ADP-Glo™+ITK” for “‘ADP-Glo™+BTK”, “25” for “10”

T1 sequence (Q06187 whole entry): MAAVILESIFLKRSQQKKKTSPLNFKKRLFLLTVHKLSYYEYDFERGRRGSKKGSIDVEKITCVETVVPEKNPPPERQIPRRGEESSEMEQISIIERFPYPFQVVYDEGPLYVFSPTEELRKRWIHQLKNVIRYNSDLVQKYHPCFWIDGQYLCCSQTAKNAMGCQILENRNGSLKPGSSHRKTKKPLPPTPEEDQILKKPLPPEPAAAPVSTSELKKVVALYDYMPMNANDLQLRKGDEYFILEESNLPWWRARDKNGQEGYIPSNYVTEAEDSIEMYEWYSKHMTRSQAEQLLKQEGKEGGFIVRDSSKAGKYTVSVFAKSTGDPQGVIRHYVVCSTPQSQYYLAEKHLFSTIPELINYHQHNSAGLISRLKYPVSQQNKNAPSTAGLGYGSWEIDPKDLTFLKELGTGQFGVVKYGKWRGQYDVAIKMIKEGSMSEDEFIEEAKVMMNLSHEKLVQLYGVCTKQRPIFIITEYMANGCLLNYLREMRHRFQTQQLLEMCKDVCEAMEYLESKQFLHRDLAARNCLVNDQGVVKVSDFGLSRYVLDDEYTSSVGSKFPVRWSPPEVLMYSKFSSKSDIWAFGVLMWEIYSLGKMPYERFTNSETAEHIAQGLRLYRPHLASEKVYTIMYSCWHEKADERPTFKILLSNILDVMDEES

On to `C=CC(=O)N1CCCC(n2nc(-c3ccc(Oc4ccccc4)cc3)c3c(N)nccc32)C1` (centres unmarked) [Example 1, 1-(3-(4-amino-3-(4-phenoxyphenyl)-1H-pyrazolo[4,3-c]pyridin-1-yl)piperidin-1-yl)prop-2-en-1-one], for which the IC50 at BTK was determined as 1.4 nM; at ITK it was 37.7 nM.
Consider `C#CC(=O)N1CCCC(n2nc(-c3ccc(Oc4ccccc4)cc3)c3c(N)nccc32)C1` (centres unmarked) [Example 2, 1-(3-(4-amino-3-(4-phenoxyphenyl)-1H-pyrazolo[4,3-c]pyridin-1-yl)piperidin-1-yl)prop-2-yn-1-one], for which the results for the IC50 on BTK and at ITK were 3.5 nM and 15.7 nM, respectively.
The corresponding values for `C=CC(=O)N1CCC(n2nc(-c3ccc(Oc4ccccc4)cc3)c3c(N)nccc32)CC1` [Example 3, 1-(4-(4-amino-3-(4-phenoxyphenyl)-1H-pyrazolo[4,3-c]pyridin-1-yl)piperidin-1-yl)prop-2-en-1-one] are 2.7 nM and greater than 1000 nM.
For `C#CC(=O)N1CCC(n2nc(-c3ccc(Oc4ccccc4)cc3)c3c(N)nccc32)CC1` [Example 4, 1-(4-(4-amino-3-(4-phenoxyphenyl)-1H-pyrazolo[4,3-c]pyridin-1-yl)piperidin-1-yl)prop-2-yn-1-one], in that order: 5.5 nM and 277 nM.
The corresponding values for `C=CC(=O)N1CCCC(n2nc(-c3ccc(Oc4ccccc4)cc3)c3c(N)ncc(I)c32)C1` (centres unmarked) [Example 5, 1-(3-(4-amino-7-iodo-3-(4-phenoxyphenyl)-1H-pyrazolo[4,3-c]pyridin-1-yl)piperidin-1-yl)prop-2-en-1-one] are 6.7 nM and 19.5 nM.
On to `C=CC(=O)N1CCCC(n2nc(-c3ccc(Oc4ccccc4)cc3)c3c(N)ncc(Cc4ccccc4)c32)C1` (centres unmarked) [Example 6, 1-(3-(4-amino-7-benzyl-3-(4-phenoxyphenyl)-1H-pyrazolo[4,3-c]pyridin-1-yl)piperidin-1-yl)prop-2-en-1-one], for which the IC50 was 29.9 nM on BTK and 288 nM on ITK.
The corresponding values for `C=CC(=O)N1CCCC(n2nc(-c3ccc(Oc4ccccc4)cc3)c3c(N)ncc(-c4cnn(C)c4)c32)C1` (centres unmarked) [Example 7, 1-(3-(4-amino-7-(1-methyl-1H-pyrazol-4-yl)-3-(4-phenoxyphenyl)-1H-pyrazolo[4,3-c]pyridin-1-yl)piperidin-1-yl)prop-2-en-1-one] are 3 nM and 36.4 nM.
For `C=CC(=O)N1CC2CC1C(n1nc(-c3ccc(Oc4ccccc4)cc3)c3c(N)ncc(-c4cnn(C)c4)c31)C2` (centres unmarked) [Example 8, 1-(6-(4-amino-7-(1-methyl-1H-pyrazol-4-yl)-3-(4-phenoxyphenyl)-1H-pyrazolo[4,3-c]pyridin-1-yl)-2-azabicyclo[2.2.1]heptan-2-yl)prop-2-en-1-one], in that order: 7.3 nM and greater than 500 nM.
The corresponding values for `C=CC(=O)N1CCCC(n2nc(-c3ccc(Oc4ccccc4)cc3)c3c(N)ncc(Cl)c32)C1` (centres unmarked) [Example 9, 1-(3-(4-amino-7-chloro-3-(4-phenoxyphenyl)-1H-pyrazolo[4,3-c]pyridin-1-yl)piperidin-1-yl)prop-2-en-1-one] are 1.5 nM and 11.3 nM.
With `C=CC(=O)N1CCCC(n2nc(-c3ccc(Oc4ccccc4)cc3)c3c(N)ncc(Br)c32)C1` (centres unmarked) [Example 10, 1-(3-(4-amino-7-bromo-3-(4-phenoxyphenyl)-1H-pyrazolo[4,3-c]pyridin-1-yl)piperidin-1-yl)prop-2-en-1-one], the figures for the IC50 on BTK and on ITK were 2.1 nM and 10.8 nM, respectively.
Consider `C=CC(=O)N1CCCC(n2nc(-c3ccc(Oc4ccccc4)cc3)c3c(N)ncc(-c4ccccc4)c32)C1` (centres unmarked) [Example 11, 1-(3-(4-amino-3-(4-phenoxyphenyl)-7-phenyl-1H-pyrazolo[4,3-c]pyridin-1-yl)piperidin-1-yl)prop-2-en-1-one], for which the figures for the IC50 at BTK and on ITK were 11.4 nM and 224 nM, respectively.
The corresponding values for `C=CC(=O)N1CCC(n2nc(-c3ccc(Oc4ccccc4)cc3)c3c(N)ncc(I)c32)CC1` [Example 12, 1-(4-(4-amino-7-iodo-3-(4-phenoxyphenyl)-1H-pyrazolo[4,3-c]pyridin-1-yl)piperidin-1-yl)prop-2-en-1-one] are 7.7 nM and greater than 1000 nM.
The corresponding values for `C=CC(=O)N1CCC(n2nc(-c3ccc(Oc4ccccc4)cc3)c3c(N)ncc(-c4cnn(C)c4)c32)CC1` [Example 13, 1-(4-(4-amino-7-(1-methyl-1H-pyrazol-4-yl)-3-(4-phenoxyphenyl)-1H-pyrazolo[4,3-c]pyridin-1-yl)piperidin-1-yl)prop-2-en-1-one] are 5.1 nM and greater than 1000 nM.
The corresponding values for `C=CC(=O)N1CCCC(n2nc(-c3ccc(Oc4ccccc4)cc3)c3c(N)ncc(/C=C/c4ccc(F)cc4)c32)C1` (centres unmarked) [Example 14, (E)-1-(3-(4-amino-7-(4-fluorostyryl)-3-(4-phenoxyphenyl)-1H-pyrazolo[4,3-c]pyridin-1-yl)piperidin-1-yl)prop-2-en-1-one] are 4.1 nM and 38.4 nM.
Take `C=CC(=O)N1CCC(n2nc(-c3ccc(Oc4ccccc4)cc3)c3c(N)ncc(/C=C/c4ccc(F)cc4)c32)CC1` [Example 15, (E)-1-(4-(4-amino-7-(4-fluorostyryl)-3-(4-phenoxyphenyl)-1H-pyrazolo[4,3-c]pyridin-1-yl)piperidin-1-yl)prop-2-en-1-one]: the IC50 is 3.7 nM on BTK and greater than 500 nM on ITK.
Turning to `C=CC(=O)N1CCC[C@@H](n2nc(-c3ccc(Oc4ccccc4)cc3)c3c(N)ncc(I)c32)C1` [Example 16, (R)-1-(3-(4-amino-7-iodo-3-(4-phenoxyphenyl)-1H-pyrazolo[4,3-c]pyridin-1-yl)piperidin-1-yl)prop-2-en-1-one], the half-inhibitory concentration (IC50) at BTK was found to be 1 nM; at ITK it was 2.7 nM.
For `C=CC(=O)N1CCC[C@@H](n2nc(-c3ccc(C(=O)Nc4ccccn4)cc3)c3c(N)nccc32)C1` [Example 18, (R)-4-(1-(1-acryloylpiperidin-3-yl)-4-amino-1H-pyrazolo[4,3-c]pyridin-3-yl)-N-(pyridin-2-yl)benzamide], in that order: 1 nM and 26.4 nM.
Take `C=CC(=O)N1CCC[C@@H](n2nc(-c3ccc(C(=O)Nc4ccccn4)cc3)c3c(N)ncc(Cl)c32)C1` [Example 19, (R)-4-(1-(1-acryloylpiperidin-3-yl)-4-amino-7-chloro-1H-pyrazolo[4,3-c]pyridin-3-yl)-N-(pyridin-2-yl)benzamide]: the IC50 on BTK came out at 1.7 nM; at ITK, 7.8 nM.
For `C=CC(=O)N1CCC[C@@H](n2nc(-c3ccc(C(=O)Nc4ccccn4)cc3)c3c(N)ncc(Br)c32)C1` [Example 20, (R)-4-(1-(1-acryloylpiperidin-3-yl)-4-amino-7-bromo-1H-pyrazolo[4,3-c]pyridin-3-yl)-N-(pyridin-2-yl)benzamide], in that order: 15.2 nM and greater than 1000 nM.
In the case of `C=CC(=O)N1CCC[C@@H](n2nc(-c3ccc(C(=O)Nc4ccccn4)cc3)c3c(N)ncc(I)c32)C1` [Example 21, (R)-4-(1-(1-acryloylpiperidin-3-yl)-4-amino-7-iodo-1H-pyrazolo[4,3-c]pyridin-3-yl)-N-(pyridin-2-yl)benzamide], the IC50 on BTK is 10.7 nM; at ITK it was greater than 1000 nM.
For `C=CC(=O)N1CCC[C@@H](n2nc(-c3ccc(C(=O)Nc4ccccc4)cc3)c3c(N)nccc32)C1` [Example 22, (R)-4-(1-(1-acryloylpiperidin-3-yl)-4-amino-1H-pyrazolo[4,3-c]pyridin-3-yl)-N-phenyl benzamide], in that order: 2.5 nM and 131 nM.
`C=CC(=O)N1CCC[C@@H](n2nc(-c3ccc(C(=O)Nc4ccccc4)cc3)c3c(N)ncc(Cl)c32)C1` [Example 23, (R)-4-(1-(1-acryloylpiperidin-3-yl)-4-amino-7-chloro-1H-pyrazolo[4,3-c]pyridin-3-yl)-N-phenyl benzamide]: the IC50 at BTK turned out to be 1.2 nM; at ITK it was 48 nM.
